# Where no end group is shown, it is not given here.
# Assays:
# [1] = tested on: soybean cv. Blackhawk plants; conditions: 48 µM spray
# Experimental: To test the potential phytotoxicity of NCR13_PFV1 spray on soybean plants, 48 µM NCR13_PFV1 or water was first sprayed on 4-week-old soybean cv. Blackhawk plants (2 ml per plant) followed by biweekly sprays at 5 ml per plant until plants were 10 weeks old. When plants reached 12 weeks, photographs were taken for phenotypic analysis and the plants were allowed to mature. Soybean pods were harvested when the plants were all dry and mature, and the number of pods, 100 seed weight, and total seed weight were determined. At least four plants per treatment were tested.
# [2] = tested on: C. sojina Cs350 (fungicide resistant); assay: Peptide-fungicide checkerboard assay; format: cell-based, Cercospora sojina; conditions: pair azoxystrobin / NCR13_PFV1; Cs350; 4 d; SHAM 60 µg ml–1; microscopy
# Experimental: Synergy between NCR13_PFV1 and the widely used QoI foliar fungicides, azoxystrobin (Sigma-Aldrich, Cat No: 31697), trifloxystrobin (Sigma-Aldrich, Cat No: 46447), and pyraclostrobin (Sigma-Aldrich, Cat No: 33696), were evaluated using checkerboard assays. This assay was performed in a 96-well plate and the preparation of conidial suspension, peptide dilutions, and fungicide dilutions were similar to the in vitro antifungal activity assay described above. The presence of an alternative respiration pathway allows some fungi including C. sojina to germinate even in the presence of a high dose of QoI fungicides in vitro ([Ziogas et al., 1997]; [Zhang et al., 2012]). Therefore, to prevent alternative respiration in C. sojina, salicylhydroxamic acid (SHAM) was added in each reaction at the final concentration of 60 µg ml^–1 ([Zhang et al., 2012]). The conidia, peptide, fungicide, and SHAM were added in a 96-well plate at the v/v ratio of 4:1:1:2 (50 µl:12.5 µl:12.5 µl:25 µl) in the final reaction volume of 100 µl, and the plate was incubated at room temperature for 96 h (4 d). After 96 h, MIC values of the peptide–fungicide combination, peptide alone, and fungicide alone were calculated based on microscopy as well as the resazurin cell viability assay. The fractional inhibitory concentration (FIC) index was calculated using the formula FIC = (MICA+B/MICA) + (MICB+A/MICB), where MICA and MICB are the MIC for peptide (A) alone and fungicide (B) alone, respectively, MICA+B is the MIC for peptide in combination with fungicide (A+B), and MICB+A is the MIC for fungicide in combination with peptide (B+A). The FIC index was interpreted as: synergistic, ≤0.5; additive, >0.5–1.0; indifferent, >1 to <4.0; or antagonistic, ≥4.0.
# [3] = tested on: fungicide-sensitive and -resistant isolates of C. sojina; assay: In vitro antifungal activity assay (MIC stated across isolates); format: cell-based, Cercospora sojina; conditions: range over Cs320 and Cs350; 48 h
# Experimental: In vitro antifungal activity of AFPs and QoI fungicides was determined using 96-well plate assays as described ([Velivelli et al., 2020]) with slight modifications. Briefly, 2- to 3-week-old C. sojina was used to make a conidial suspension in 2× SFM at the final concentration of ∼10^5 conidia ml^−1. Simultaneously, peptide dilutions (in water) at various concentrations were made. Fungicides were dissolved in 50% acetone and 50% water to make a stock solution of 500 µM, and serial dilutions were made in water as needed. The peptide–conidia or the fungicide–conidia mixture at the ratio of 1:1 (45 µl:45 µl) was added in a 96-well plate and incubated at room temperature for 48 h, after which MICs of the peptides/fungicides were calculated based on microscopy as well as the resazurin cell viability assay ([Velivelli et al., 2020]).
# B. cinerea = conditions: ref Godwin et al., 2024; cited from earlier work
# Description: The cysteine-rich defensins are the best characterized class of plant AFPs for their antifungal activity and multi-faceted MoAs. Many fungal pathogens internalize defensins and defensin-derived peptides in vitro, making them promising candidates for development as bio-fungicides to protect crops. For example, a well-characterized plant defensin MtDef4 and the 17 amino acid γ-core peptide GMA4CG_V6 peptide derived from this defensin are internalized by the necrotrophic pathogen Botrytis cinerea in vitro and robustly reduce gray mold symptoms when sprayed on tomato plants ([Tetorya et al., 2023] ...
# [4] = tested on: protein translation in C. sojina Cs350 germlings; assay: In vivo protein translation inhibition assay (puromycin labeling); format: cell-based, Cercospora sojina; conditions: germlings treated 2 h at 6 µM and 12 µM, puromycin 1 mM 3 h; n=3
# Experimental: To assess the translation inhibition of NCR13_PFV1 in C. sojina Cs350, we adapted a recently established puromycin labeling protocol in B. cinerea with minor modifications ([Godwin and Shah, 2025]). Cercospora sojina spores at a concentration of ∼10^5 ml^–1 were inoculated in SFM and cultured for 18 h. The germlings were then treated with NCR13_PFV1 (6 µM and 12 µM) or cycloheximide (50 µg ml^–1) (positive control) for 2 h, followed by the addition of puromycin (1 mM) and incubation for 3 h at 28 °C. After incubation, the germlings were washed three times with sterile water. Total proteins were extracted from germlings using lysis buffer (100 mM HEPES, 5 mM EDTA, 0.1% Triton-X 100, and yeast/fungal protease inhibitor cocktail) and the concentration was estimated using the Pierce BCA Protein Assay Kit (Thermo Scientific). Equal amounts (10 µg) of fungal protein were separated on a 4–20% mini-PROTEAN TGX stain-free protein gel (Bio-Rad, Cat No: 4568094). Western blot analysis was performed using an anti-puromycin antibody (Cell Signaling Technology, Cat No: 40939S), and signal intensities were quantified using Fiji ([Schindelin et al., 2012]).
# C. sojina conidia = assay: ROS measurement with H2DCFDA; format: cell-based, Cercospora sojina; conditions: 1.5 μM peptide, 15 µM H2DCFDA
# Experimental: The reactive oxygen species (ROS) indicator dye 2′,7′-dichlorodihydrofluorescein diacetate (H2DCFDA) was used to evaluate ROS induction in C. sojina cells. Cercospora sojina conidia (∼1×10^5 conidia ml^−1) in SFM at various concentrations of iron (FeSO4) were mixed with 15 µM H2DCFDA amd 1.5 µM NCR13_PFV1, and the fluorescence measurements were taken in a Tecan plate reader M200 PRO at excitation and emission wavelengths of 485 nm and 535 nm, respectively, every 30 min for 15 h. ROS induction in C. sojina was visualized using time-lapse confocal microscopy (×63 water immersion objective lens, HC PL Apochromat CS2). The C. sojina conidia grown for 4–5 h in SFM at various concentrations of iron were treated with 15 µM H2DCFDA and 1.5 µM DyLight550-NCR13_PFV1 followed by acquisition of z-stacks using a Leica SP8-X confocal microscope. The excitation and emission wavelengths of DyLight550-NCR13_PFV1 and H2DCFDA were 560 nm, 575–650 nm, and 485 nm, 500–540 nm, respectively.
sequence,measurement,setting,value
"TKPCQSDKDCKKFACRKPKVPKCINGFCKCVR (disulfide (positions not given here)) [NCR13_PFV1, chickpea nodule-specific cysteine-rich 32 amino acid peptide, disulfide cross-linking variant 1, expressed in Pichia pastoris]","morphology of sprayed plants (growth rate, height, leaf color) compared with water","[1]; bi-weekly from the fourth to the 10th week, at least four plants",No morphological difference
same,"number of pods, 100 seed weight, total seed yield compared with water","[1]; at maturity, Student’s t-test",no significant differences
same,Combination MIC,[2],0.75 µM
same,MIC against fungicide-sensitive and -resistant isolates of C. sojina,[3],0.75 to 1.5 µM
same,fold more potent antifungal activity than NCR13_PFV2 against B. cinerea,B. cinerea,2 fold
same,concentration from which protein translation inhibition was observed,[4],6 µM
same,ROS induction,C. sojina conidia,accumulates ROS
same,ROS level over time at iron >20 μM,C. sojina conidia; read every 30 min for 15 h,did not increase with time
